According to patent US6713475B2, “Tricyclic benzodiazepines as vasopressin receptor antagonists” (Ortho-McNeil Pharmaceutical, Inc., priority 1999, dated 2004):
Structures can show the parent of a compound that is named as a salt.

How the values were obtained:
human V-1 receptor = target: T1, human V-1 receptor (Homo sapiens, UniProt P37288); experiment: In vitro recombinant vasopressin receptor binding assay (V1 Bdg), displacement of 3H-arginine vasopressin; conditions: for inhibition at 0.1 µM: read-out: V1 Bdg (% inh, 0.1 uM)
T1 construct: expressed in transfected cells; host or cells: HEK-293
T1 sequence (P37288 whole entry): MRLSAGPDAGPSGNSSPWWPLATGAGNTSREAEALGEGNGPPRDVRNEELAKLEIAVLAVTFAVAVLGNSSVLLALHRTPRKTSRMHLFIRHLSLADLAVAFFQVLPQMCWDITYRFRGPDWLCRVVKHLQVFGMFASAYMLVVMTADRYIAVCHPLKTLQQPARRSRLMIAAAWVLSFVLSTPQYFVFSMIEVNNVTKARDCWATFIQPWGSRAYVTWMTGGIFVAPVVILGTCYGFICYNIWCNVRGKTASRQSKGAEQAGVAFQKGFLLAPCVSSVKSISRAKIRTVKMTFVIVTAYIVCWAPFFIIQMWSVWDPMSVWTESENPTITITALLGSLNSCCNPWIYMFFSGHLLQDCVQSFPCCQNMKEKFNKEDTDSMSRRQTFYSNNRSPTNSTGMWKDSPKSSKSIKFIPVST
In short: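 Membranes from HEK-293 cells bearing cloned human V-1 receptor, incubated 1 h at room temperature with 0.65-0.75 nM 3H-arginine-8-vasopressin in pH 7.5 Tris/MgCl2/BSA buffer with protease inhibitors. Filtration onto GF/C, scintillation count. Non-specific binding with 1.25 uM arginine-8-vasopressin.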

[1] = test system: vasopressin-induced hypertension in anesthetized rats; experiment: Reversal of vasopressin-induced hypertension in rats (intraduodenal dosing); assay type: in vivo, rat; conditions: I.D. dose 10 mg/kg, single dose into the duodenum, maximum percent reversal, monitored for 60 minutes
Experimental: Reversal of Vasopressin-Induced Hypertension in Rats
The anti-hypertensive activity of compounds was screened in an anesthetized model of vasopressin-induced hypertension. Male Long Evans, normotensive rats of between 350 and 450 g in body weight were anesthetized with pentobarbital (35 mg/kg, ip) and maintained throughout the procedure with an ip infusion of 10 mg/kg/hr. Arginine vasopressin was infused at 30 ng/kg/min, iv, to induce a stable hypertensive state (ca. 50 mmHg increase in mean arterial blood pressure). Compounds of interest were administered in an ascending dose fashion and the maximum decrease in mean arterial blood pressure was recorded. An ED50 was determined from the linear portion of the dose-response relationship for each animal.
This model was modified slightly to assess the bioavailability of compounds of interest. Rather than dosing the animals iv in an ascending dose fashion, a single dose per animal was administered directly into the duodenum. The anti-hypertensive effects were then monitored for 60 minutes and the maximum percent reversal was calculated.

V2 [2] = target: T2, V2 (Homo sapiens, UniProt P30518); experiment: In vitro recombinant vasopressin receptor binding assay (V2 Bdg), displacement of 3H-arginine vasopressin; design: expressed in transfected cells; host or cells: HEK-293; conditions: for IC50: membrane with cloned human V-2 receptor (HEK-293); for V2 Bdg % inh: 0.1 uM, printed in parentheses in place of IC50
T2 sequence (P30518 whole entry): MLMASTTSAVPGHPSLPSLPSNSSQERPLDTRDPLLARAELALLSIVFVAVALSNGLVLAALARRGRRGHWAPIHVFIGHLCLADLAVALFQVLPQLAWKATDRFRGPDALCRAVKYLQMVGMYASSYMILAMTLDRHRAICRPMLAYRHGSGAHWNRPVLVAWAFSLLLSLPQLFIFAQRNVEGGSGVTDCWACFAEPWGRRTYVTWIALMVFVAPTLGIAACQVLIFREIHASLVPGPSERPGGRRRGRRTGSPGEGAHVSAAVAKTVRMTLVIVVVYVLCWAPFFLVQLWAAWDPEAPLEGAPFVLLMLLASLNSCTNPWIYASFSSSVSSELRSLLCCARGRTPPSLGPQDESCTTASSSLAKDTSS
In short: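 Displacement of ³H-vasopressin from membranes of HEK-293 cells bearing cloned human V-2 receptor, incubated with test compound one hour at room temperature. Bound label was collected on PEI-soaked GF/C filters, washed with cold saline/0.05% Tween 20, and counted by scintillation.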

V2 [3] = target: T2, V2; experiment: V2 cAMP; assay type: cell-based

O=C(Nc1ccc(C(=O)N2CC3CSCCN3Cc3cc(F)ccc32)cc1)c1ccccc1-c1ccccc1 (racemic) (as salt: HCl) [Compound 32, (RS)-2-Phenyl-N-[4-(8-fluoro-1,3,4,12a-tetrahydro-6H-[1,4]thiazino[4,3-a][1,4]-benzodiazepin-11(12H)-yl-carbonyl)phenyl]benzamide]
melting point: 177 to 180 °C

Cc1ccc2c(c1)CN1CCSCC1CN2C(=O)c1ccc(NC(=O)c2ccccc2-c2ccccc2)cc1 (racemic) (as salt: HCl) [Compound 36, (RS)-2-Phenyl-N-[4-(8-methyl-1,3,4,12a-tetrahydro-6H-[1,4]thiazino[4,3-a][1,4]-benzodiazepin-11(12H)-yl-carbonyl)phenyl]benzamide]
melting point: 191 to 196 °C

O=C(Nc1ccc(C(=O)N2CC3CSCCN3Cc3ccccc32)cc1)c1ccccc1-c1ccccc1 (racemic) [Compound 3, (RS)-2-Phenyl-N-[4-(1,3,4,12a-tetrahydro-6H-[1,4]thiazino[4,3-a][1,4]-benzodiazepin-11(12H)-yl-carbonyl)phenyl]benzamide]
inhibition at 0.1 µM (human V-1 receptor): 42% | BP Reduction (%) [1]: 100%

O=C(Nc1ccc(C(=O)N2CC3CCCCN3Cc3ccccc32)cc1)c1ccccc1-c1ccccc1 (stereo not shown) (as salt: HCl) [Compound 1, 10-[4-[[(2-Biphenyl)carbonyl]amino]benzoyl]-10,11-dihydro-5H-piperidino[2,1-c][1,4]benzodiazepine]
melting point: 191 to 193 °C

O=C(Nc1ccc(C(=O)N2C[C@H]3COCCN3Cc3ccccc32)c(Cl)c1)c1ccccc1-c1ccccc1 (as salt: HCl) (hydrate or solvate) [Compound 4, (S)-2-Phenyl-N-[3-chloro-4-(1,3,4,12a-tetrahydro-6H-[1,4]oxazino[4,3-a][1,4]-benzodiazepin-11(12H)-yl-carbonyl)phenyl]benzamide]
melting point: > 210 °C (dec.)

O=C(Nc1ccc(C(=O)N2CC3COCCN3Cc3ccccc32)c(O)c1)c1ccccc1-c1ccccc1 (racemic) (as salt: HCl) [Compound 23, (RS)-2-Phenyl-N-[3-hydroxy-4-(1,3,4,12a-tetrahydro-6H-[1,4]oxazino[4,3-a][1,4]-benzodiazepin-11(12H)-yl-carbonyl)phenyl]benzamide]
melting point: 185 to 188 °C (dec.)

O=C(Nc1ccc(C(=O)N2CC3COCCN3Cc3ccccc32)cc1O)c1ccccc1-c1ccccc1 (racemic) [Compound 22, (RS)-2-Phenyl-N-[2-hydroxy-4-(1,3,4,12a-tetrahydro-6H-[1,4]oxazino[4,3-a][1,4]-benzodiazepin-11(12H)-yl-carbonyl)phenyl]benzamide]
inhibition at 0.1 µM (human V-1 receptor): 67% | IC50 (V2 [2]): 6 nM

Cc1cc(NC(=O)c2ccccc2-c2ccccc2)ccc1C(=O)N1CC2CN(C)CCN2Cc2ccccc21 (racemic) [Compound 89, (RS)-2-Phenyl-N-[3-methyl-4-(1,3,4,12a-tetrahydro-2-methyl-6H-[1,4]pyrazino[4,3-a][1,4]-benzodiazepin-11(12H)-yl-carbonyl)phenyl]benzamide]
V1 Bdg % inh (human V-1 receptor; 1 uM): (51%/1 uM) | V2 Bdg % inh (V2 [2]): (56%/0.1 uM)

O=C(Nc1ccc(C(=O)N2CC3CSCCN3Cc3cc(F)c(F)cc32)cc1)c1ccccc1-c1ccccc1 (racemic) (as salt: HCl) [Compound 35, (RS)-2-Phenyl-N-[4-(8,9-difluoro-1,3,4,12a-tetrahydro-6H-[1,4]thiazino[4,3-a][1,4]-benzodiazepin-11(12H)-yl-carbonyl)phenyl]benzamide]
melting point: 194 to 199 °C

Cc1ccc(F)c(C(=O)Nc2ccc(C(=O)N3CC4CN(C)CCN4Cc4ccccc43)c(Cl)c2)c1 (racemic) [Compound 96, (RS)-2-Fluoro-5-methyl-N-[3-chloro-4-(1,3,4,12a-tetrahydro-2-methyl-6H-[1,4]pyrazino[4,3-a][1,4]-benzodiazepin-11(12H)-yl-carbonyl)phenyl]benzamide]
V1 Bdg % inh (human V-1 receptor; 1 uM): (9%/1 uM) | V2 Bdg % inh (V2 [2]): (3%/0.1 uM)

Cc1cccc(C(=O)Nc2ccc(C(=O)N3CC4CSCCN4Cc4ccccc43)c(Cl)c2)c1I (racemic) [Compound 42, (RS)-2-Iodo-3-methyl-N-[3-chloro-4-(1,3,4,12a-tetrahydro-6H-[1,4]thiazino[4,3-a][1,4]-benzodiazepin-11(12H)-yl-carbonyl)phenyl]benzamide]
V1 Bdg (% inh, 0.1 uM) (human V-1 receptor): 0% | V2 Bdg % inh (V2 [2]): (62%/0.1 uM)

O=C(Nc1ccc(C(=O)N2CC3COCCN3C(=O)c3ccccc32)c(Cl)c1)c1ccccc1-c1ccccc1 (racemic) [Compound 21, (RS)-2-Phenyl-N-[3-chloro-4-(1,3,4,12a-tetrahydro-6H-[1,4]oxazino[4,3-a][1,4]-5-oxo-benzodiazepin-11(12H)-yl-carbonyl)phenyl]benzamide]
V1 Bdg (% inh, 0.1 uM) (human V-1 receptor): 2% | V2 Bdg % inh (V2 [2]): (59%/0.1 uM)

O=C(Nc1ccc(C(=O)N2CC3COCCN3Cc3ccccc32)c(Cl)c1)c1cccc(Cl)c1F (racemic) [Compound 18, (RS)-2-Fluoro-3-chloro-N-[3-chloro-4-(1,3,4,12a-tetrahydro-6H-[1,4]oxazino[4,3-a][1,4]-benzodiazepin-11(12H)-yl-carbonyl)phenyl]benzamide]
inhibition at 0.1 µM (human V-1 receptor): 15% | IC50 (V2 [2]): 18 nM

COc1cc(NC(=O)c2ccccc2-c2ccc(C)cc2)ccc1C(=O)N1CC2CN(C)CCN2Cc2ccccc21 (racemic) [Compound 85, (RS)-2-(4-Methyl-phenyl)-N-[3-methoxy-4-(1,3,4,12a-tetrahydro-2-methyl-6H-[1,4]pyrazino[4,3-a][1,4]-benzodiazepin-11(12H)-yl-carbonyl)phenyl]benzamide]
V1 Bdg % inh (human V-1 receptor; 1 uM): (19%/1 uM) | V2 Bdg % inh (V2 [2]): (54%/0.1 uM)

O=C(Nc1ccc(C(=O)N2CC3COCCN3Cc3ccccc32)cc1O)c1ccccc1-c1ccccc1 (racemic) (as salt: HCl) [Compound 22, (RS)-2-Phenyl-N-[2-hydroxy-4-(1,3,4,12a-tetrahydro-6H-[1,4]oxazino[4,3-a][1,4]-benzodiazepin-11(12H)-yl-carbonyl)phenyl]benzamide]
melting point: 188 to 195 °C (dec.)

O=C(Nc1ccc(C(=O)N2C[C@H]3CSCCN3Cc3ccccc32)c(Cl)c1)c1ccccc1-c1ccccc1 (as salt: HCl) [Compound 47, (S)-2-Phenyl-N-[3-chloro-4-(1,3,4,12a-tetrahydro-6H-[1,4]thiazino[4,3-a][1,4]-benzodiazepin-11(12H)-yl-carbonyl)phenyl]benzamide]
melting point: 192 to 197 °C

COc1cc(C(=O)N2CC3CN(C)CCN3Cc3ccccc32)ccc1NC(=O)c1ccccc1-c1ccccc1 (racemic) [Compound 72, (RS)-2-Phenyl-N-[2-methoxy-4-(1,3,4,12a-tetrahydro-2-methyl-6H-[1,4]pyrazino[4,3-a][1,4]-benzodiazepin-11(12H)-yl-carbonyl)phenyl]benzamide]
V1 Bdg % inh (human V-1 receptor; 1 uM): (6%/1 uM) | V2 Bdg % inh (V2 [2]): (48%/0.1 uM)

O=C(Nc1ccc(C(=O)N2CC3CC=CCN3Cc3ccccc32)cc1)c1ccccc1-c1ccccc1 (stereo not shown) [Compound 2, 10-[4-[[(2-Biphenyl)carbonyl]amino]benzoyl]-10,11-dihydro-5H-(tetrahydropyridino)[2,1-c][1,4]benzodiazepine]
IC50 (V2 [3]): 460 nM | inhibition at 0.1 µM (human V-1 receptor): 29% | IC50 (V2 [2]): 14 nM

O=C(Nc1ccc(C(=O)N2CC3COCCN3Cc3ccccc32)c(Cl)c1)c1cc(F)c(F)c(F)c1F (racemic) [Compound 16, (RS)-2,3,4,5-Tetrafluoro-N-[3-chloro-4-(1,3,4,12a-tetrahydro-6H-[1,4]oxazino[4,3-a][1,4]-benzodiazepin-11(12H)-yl-carbonyl)phenyl]benzamide]
inhibition at 0.1 µM (human V-1 receptor): 20% | IC50 (V2 [2]): 25 nM

Cc1cc(C(=O)N2CC3CN(C)CCN3Cc3ccccc32)ccc1NC(=O)c1ccccc1-c1ccccc1 (racemic) [Compound 78, (RS)-2-Phenyl-N-[2-methyl-4-(1,3,4,12a-tetrahydro-2-methyl-6H-[1,4]pyrazino[4,3-a][1,4]-benzodiazepin-11(12H)-yl-carbonyl)phenyl]benzamide]
V1 Bdg % inh (human V-1 receptor; 1 uM): (2%/1 uM) | V2 Bdg % inh (V2 [2]): (5%/0.1 uM)

CN(C)c1cc(NC(=O)c2ccccc2-c2ccccc2)ccc1C(=O)N1C[C@H]2CSCCN2Cc2ccccc21 [Compound 46, (S)-2-Phenyl-N-[3-dimethylamino-4-(1,3,4,12a-tetrahydro-6H-[1,4]thiazino[4,3-a][1,4]-benzodiazepin-11(12H)-yl-carbonyl)phenyl]benzamide]
inhibition at 0.1 µM (human V-1 receptor): 8% | IC50 (V2 [2]): 47 nM

O=CN1CCN2Cc3ccccc3N(C(=O)c3ccc(NC(=O)c4ccccc4-c4ccccc4)cc3)CC2C1 (racemic) [Compound 59, (RS)-2-Phenyl-N-[4-(1,3,4,12a-tetrahydro-2-formyl-6H-[1,4]pyrazino[4,3-a][1,4]-benzodiazepin-11(12H)-yl-carbonyl)phenyl]benzamide]
V1 Bdg % inh (human V-1 receptor; 10 uM): (17%/10 uM) | V2 Bdg % inh (V2 [2]): (29%/0.1 uM)
